Assays:
MMP-12 = molecular target: T1, MMP-12 (Homo sapiens, UniProt P39900); assay: Assay for inhibitory activities on MMPs (fluorogenic peptide substrate), MMP-12; assay type: biochemical; conditions: catalytic domain 100Phe-263Gly; substrate MOCAc-Pro-Leu-Gly-Leu-A2Pr(DNP)-Ala-Arg-NH2
T1 construct: catalytic domain(^100Phe˜^263Gly) was amplified with RT-PCR; His-tag; enterokinase digestion-site; made in house; host or cells: Escherichia coli
Description: (§1) In regard to MMP-12, catalytic domain(^100Phe˜^263Gly) was amplified with RT-PCR from Human Placenta Total RNA. This was cloned in Escherichia. coli expression vector pTrc99AHE inserted with His-tag sequence and enterokinase digestion-site, induced and expressed by IPTG (Isopropyl-β-D-thiogalactopyranoside) and expressed in a insoluble fraction. Isolation of MMP-12 from an insoluble fraction was carried out by dissolving in modifier (6M urea) by a usual method and purification with metal chelate chromatography (Ni Chelateing Sepharose). And then removing modifier (6M urea) with dialysis and refolding of the enzyme spontaneously gave activated MMP-12.
(§2) The enzymatic activity on MMPs was analyzed by the method described in “C. Graham Knight, Frances Willenbrock and Gillian Murphy: A novel coumarin-labelled peptide for sensitive continuous assays of the matrix metalloproteinases: FEBS LETT., 296, (1992), 263-266”. The substrate MOCAc-Pro-Leu-Gly-Leu-A2Pr(DNP)-Ala-Arg-NH2 was purchased from Peptide Institute, Inc., Osaka, Japan. The measurement of the inhibitory activities (IC50) was carried out by the following four methods;
(§3) (A) Reaction with substrate, enzyme (MMPs) and inhibitor
(§4) (B) Reaction with substrate and inhibitor, without enzyme
(§5) (C) Reaction with substrate and enzyme (MMPs), without inhibitor
(§6) (D) Reaction with substrate only
(§7) IC50 values were calculated by using the following formula and each fluorescence values of above four methods (A to D). % inhibition={1−(A−B)/(C−D)}×100 IC50 means the concentration required to inhibit 50% of the enzyme activity.

MMP-2 = molecular target: T2, MMP-2 (Homo sapiens, UniProt P08253); assay: Assay for inhibitory activities on MMPs (fluorogenic peptide substrate), MMP-2; assay type: biochemical; conditions: purchased MMP-2; substrate MOCAc-Pro-Leu-Gly-Leu-A2Pr(DNP)-Ala-Arg-NH2
T2 construct: purchased Calbiochem-Novabiochem International, Inc
T2 sequence (P08253 110-660): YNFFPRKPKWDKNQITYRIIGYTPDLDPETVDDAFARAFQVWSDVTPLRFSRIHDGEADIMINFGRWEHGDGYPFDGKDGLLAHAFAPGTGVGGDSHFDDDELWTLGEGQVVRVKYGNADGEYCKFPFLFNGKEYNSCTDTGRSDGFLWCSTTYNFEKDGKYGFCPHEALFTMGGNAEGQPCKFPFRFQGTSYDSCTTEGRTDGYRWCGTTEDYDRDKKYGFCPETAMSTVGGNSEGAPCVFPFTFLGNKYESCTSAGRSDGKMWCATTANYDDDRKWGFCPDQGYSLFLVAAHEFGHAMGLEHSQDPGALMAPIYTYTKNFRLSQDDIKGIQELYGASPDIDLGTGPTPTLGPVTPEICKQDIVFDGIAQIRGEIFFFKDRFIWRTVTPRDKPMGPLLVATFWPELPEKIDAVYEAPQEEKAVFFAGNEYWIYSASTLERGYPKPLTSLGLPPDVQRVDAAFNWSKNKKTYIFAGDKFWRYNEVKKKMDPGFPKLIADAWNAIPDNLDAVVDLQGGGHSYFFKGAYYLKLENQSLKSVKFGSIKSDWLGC
Description: MMP-2 was purchased from Calbiochem-Novabiochem International, Inc.
as §2, §3, §4, §5, §6, §7

MMP-9 = molecular target: T3, MMP-9 (Homo sapiens, UniProt P14780); assay: Assay for inhibitory activities on MMPs (fluorogenic peptide substrate), MMP-9; assay type: biochemical; conditions: MMP-9 from HT1080 cells, activated by TPCK-Trypsin; substrate MOCAc-Pro-Leu-Gly-Leu-A2Pr(DNP)-Ala-Arg-NH2
T3 construct: endogenous in cells; host or cells: HT1080 human fibrosarcoma cells, TPA-stimulated; enzyme purified from conditioned medium
T3 sequence (P14780 107-707 limits assumed): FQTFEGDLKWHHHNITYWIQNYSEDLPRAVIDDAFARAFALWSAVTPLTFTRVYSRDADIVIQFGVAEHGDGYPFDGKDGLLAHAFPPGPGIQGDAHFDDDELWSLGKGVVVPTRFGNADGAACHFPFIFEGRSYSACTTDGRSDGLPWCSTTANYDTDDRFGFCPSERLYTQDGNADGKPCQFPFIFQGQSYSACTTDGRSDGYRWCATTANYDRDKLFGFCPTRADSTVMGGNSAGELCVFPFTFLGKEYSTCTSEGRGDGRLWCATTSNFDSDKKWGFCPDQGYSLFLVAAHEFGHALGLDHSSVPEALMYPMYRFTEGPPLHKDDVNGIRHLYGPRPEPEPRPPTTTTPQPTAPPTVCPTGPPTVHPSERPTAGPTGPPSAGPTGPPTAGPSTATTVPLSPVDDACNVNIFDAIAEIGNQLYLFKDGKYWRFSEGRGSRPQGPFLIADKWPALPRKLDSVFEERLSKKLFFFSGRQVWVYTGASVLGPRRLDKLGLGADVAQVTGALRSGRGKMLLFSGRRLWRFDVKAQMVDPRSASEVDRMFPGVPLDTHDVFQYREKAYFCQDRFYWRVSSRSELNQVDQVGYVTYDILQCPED
Source text: MMP-9 was isolated and purified by procedures described in as follows: Yasunori Okada, Yukio Gonoji, Katsumi Naka, Katsuro Tomita, Isao Nakanishi, Kazushi Iwata, Kyoko Yamashita, and Taro Hayakawa: Matrix metalloproteinase 9 (92-kDa gelatinase/type IV collagenase) from HT1080 human fibrosarcoma cells. Purification and activation of the precursor and enzymic properties J. Biol. Chem., 1992, 267 21712-21719, in combination with others: 1)Yasunori Okada, Tatsuhisa Morodomi, Jan J, Enghild, ko Suzuki, Atsushi Yasui, Isao Nakanishi, Guy Salvesen and Hideaki Nagase: Matrix metalloproteinase 2 from human rheumatoid synovial fibroblasts. Purification and activation of the precursor and enzymic properties. Eur. J. Biochem. 1990, 194 721-730; 2)Robin V Ward, Rosalind M Hembry, John J Reynolds and Gillian Murphy: The purification of tissue inhibitor of metalloproteinase-2 from its 72 kDa progelatinase complex. Biochem. J. 1991 278 179-187. In detail, human fibrosarcoma ATCC HT1080 cell line was cultured to confluent in Dulbecco's Modified Medium (DMEM) containing 10% fetal-calf serum at 37° C. for 48 hours. Subsequently, the medium of confluent culture was changed to serum-free DMEM medium. To obtain MMP-9, Phorbol-12-myristate-13-acetate (TPA) must be added to this serum-free DMEM medium at a concentration of 50 ng/ml. The TPA treated medium was centrifuged at 3000 rpm for 15 min and the supernatant was concentrated to 450 ml by a Toyo-Roshi UP-20 apparatus with an ultrafiltration membrane. Then, proMMP-9 in this concentrated solution was purified by using columns of Gelatin-Sepharose and Concanavalin A-Sepharose. The pool containing proMMP-9 was dialyzed, concentrated (Toyo-Roshi UP-20) and applied to columns of Sephacryl S-200 and Green A matrix for the separation from TIMPs. The obtained proMMP-9 fraction was activated by TPCK-Trypsin (Final conc. 3 μg/501 μl React Mix.).
as §2, §3, §4, §5, §6, §7

MMP-13 = molecular target: T4, MMP-13 (Homo sapiens, UniProt P45452); assay: Assay for inhibitory activities on MMPs (fluorogenic peptide substrate), MMP-13; assay type: biochemical; conditions: catalytic domain 104Tyr-267Gly; substrate MOCAc-Pro-Leu-Gly-Leu-A2Pr(DNP)-Ala-Arg-NH2
T4 construct: catalytic domain (^104Tyr˜^267Gly) was amplified with RT-PCR; His-tag; enterokinase digestion-site; made in house; host or cells: Escherichia coli
Description: as §1, with “MMP-13, mRNA was prepared from carcinoma cell SW1353 derived from human cartilage stimulate by IL-1, TNF and” for “MMP-12,”, “domain (^104Tyr˜^267Gly)” for “domain(^100Phe˜^263Gly)”, “RT-PCR.” for “RT-PCR from Human Placenta Total RNA.”, “MMP-13” for “MMP-12”, “dialyze” for “dialysis”, “MMP-13.” for “MMP-12.”
as §2, §3, §4, §5, §6, §7

MMP-8 = molecular target: T5, MMP-8 (Homo sapiens, UniProt P22894); assay: Assay for inhibitory activities on MMPs (fluorogenic peptide substrate), MMP-8; assay type: biochemical; conditions: catalytic domain 99Phe-262Gly; substrate MOCAc-Pro-Leu-Gly-Leu-A2Pr(DNP)-Ala-Arg-NH2
T5 construct: catalytic domain (^99Phe˜^262Gly) was amplified with PCR; His-tag; enterokinase digestion-site; made in house; host or cells: Escherichia coli
T5 sequence (P22894 99-262): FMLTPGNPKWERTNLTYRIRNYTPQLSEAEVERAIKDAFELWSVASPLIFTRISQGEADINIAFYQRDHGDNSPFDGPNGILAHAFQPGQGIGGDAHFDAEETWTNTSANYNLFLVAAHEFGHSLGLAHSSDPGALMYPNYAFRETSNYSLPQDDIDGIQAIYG
Source text: In regard to MMP-8, catalytic domain (^99Phe˜^262Gly) was amplified with PCR using commercial available Human Bone Marrow cDNA. This was cloned in Escherichia. coli expression vector pTrc99AHE inserted with His-tag sequence and enterokinase digestion-site, induced and expressed by IPTG (Isopropyl-β-D-thiogalactopyranoside) and expressed in a insoluble fraction (Thau F. Ho, M. Walid Qoronfleh, Robert C. Wahl, Trica A. Pulvino, Karen J. Vavra, Joe Falvo, Tracey M. Banks, Patricia G. Brake and Richard B. Ciccarelli: Gene expression, purification and characterization of recombinant human neutrophil collagenase. Gene 146, (1994) 297-301, Prepared by the a improved method of this material). Isolation of MMP-8 from an insoluble fraction was carried out by dissolving in modifier (6M urea) by a usual method and purification with metal chelate chromatography. And then removing modifier (6M urea) with dialysis and refolding of the enzyme spontaneously gave activated MMP-8.
as §2, §3, §4, §5, §6, §7

T1 sequence (P39900 100-263): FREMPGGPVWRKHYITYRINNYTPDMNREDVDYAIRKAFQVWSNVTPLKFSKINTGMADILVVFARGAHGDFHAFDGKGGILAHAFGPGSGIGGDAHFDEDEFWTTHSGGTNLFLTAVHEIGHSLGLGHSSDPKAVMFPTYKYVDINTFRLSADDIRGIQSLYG

IC50 (MMP-12)	IC50 (MMP-2)	IC50 (MMP-9)	IC50 (MMP-13)	melting point	IC50 (MMP-8)	Structure (SMILES)
1.88 nM	9.31 nM	212 nM	15 nM	243 to 245 °C	230 nM	O=C(O)[C@@H](Cc1ccccc1)NS(=O)(=O)c1ccc(-c2ncc(-c3ccc4ccccc4c3)o2)cc1 [Compound A-1]
3.55 nM	1.29 nM	43.8 nM	2.96 nM	222 to 223 °C	28.2 nM	COc1ccc(-c2cnc(-c3ccc(S(=O)(=O)N[C@H](Cc4ccccc4)C(=O)O)cc3)s2)cc1 [Compound B-1]
5.55 nM	2.5 nM	34.7 nM	29.5 nM		453 nM	O=C(O)CNS(=O)(=O)c1ccc(-c2ncc(-c3ccc(Cl)cc3)s2)cc1 [Compound B-52]
2.54 nM	2.41 nM	173 nM	12.4 nM		373 nM	C[C@@H](NS(=O)(=O)c1ccc(-c2ncc(-c3ccc4ccccc4c3)s2)cc1)C(=O)O [Compound B-53]

The next lines start with the compound.

Structure (SMILES)	IC50 (MMP-12)	IC50 (MMP-2)	IC50 (MMP-9)	IC50 (MMP-13)	melting point	IC50 (MMP-8)
COc1ccc(-c2cnc(-c3ccc(S(=O)(=O)N[C@H](CC(C)C)C(=O)O)cc3)s2)cc1 [Compound B-34]	3.35 nM	1.63 nM	53.6 nM	6.82 nM		24.9 nM
O=C(O)C[C@@H](NS(=O)(=O)c1ccc(-c2ncc(-c3ccc(Cl)cc3)s2)cc1)C(=O)O [Compound B-38]	2.54 nM	2.14 nM	11.6 nM	7.43 nM		104 nM
CSCC[C@@H](NS(=O)(=O)c1ccc(-c2ncc(-c3ccccc3)s2)cc1)C(=O)O [Compound B-45]	2.66 nM	2.15 nM	26.3 nM	17.5 nM		29 nM
CSCC[C@@H](NS(=O)(=O)c1ccc(-c2ncc(-c3ccc(Cl)cc3)s2)cc1)C(=O)O [Compound B-46]	1.08 nM	1.17 nM	24 nM	11 nM		57 nM
O=C(O)[C@@H](Cc1c[nH]c2ccccc12)NS(=O)(=O)c1ccc(-c2ncc(-c3ccc(Cl)cc3)s2)cc1 [Compound B-51]	0.761 nM	0.276 nM	4.24 nM	2.66 nM		66 nM
